Values of other authors as cited in patent publication US20240197617A1, “ANTI-AGING COSMETIC COMPOSITION BASED ON RESVERATROL AND MAGNOLIA” (Tomcat International Limited, priority 2021, published 2024).

Test system: TET enzymes
Conditions: study carried out on a mouse

## C=CCc1ccc(O)c(-c2ccc(O)c(CC=C)c2)c1 [honokiol]
  Effect on activity of TET enzymes: stimulated the activity of TET enzymes
